In patent US7829568B2, “Substituted 5,6,7,8-tetrahydroimidazo[1,2-a]pyridin-2-ylamine compounds and their use for producing drugs” (Gruenenthal GmbH, priority 2005, dated 2010):

These compounds were tested on batrachotoxin (BTX) binding site of the sodium channel (assay: Affinity to the batrachotoxin (BTX) binding site of the sodium channel). Settings: [3H]-batrachotoxinin A20 α-benzoate 10 nM; synaptosomes from rat cerebral cortex; test concentration not given.
Design: species or system rat

| Structure (SMILES) | BTX inhibition (rat) (% inhibition) |
| --- | --- |
| CCCCN(C(=O)c1cccc(Cl)c1)c1nc2n(c1C(=O)NC(C)CCc1ccccc1)CCCC2 (centres unmarked) [Example 145, 2-[butyl-(3-chloro-benzoyl)-amino]-5,6,7,8-tetrahydro-imidazo[1,2-a]pyridine-3-carboxylic acid (1-methyl-3-phenyl-propyl)-amide] | 67% |
| COc1cc(OC)c(CN2CCN(C(=O)c3c(N(C)C(=O)c4cccc(Cl)c4)nc4n3CCCC4)CC2)c(OC)c1 [Example 146, 3-chloro-N-methyl-N-{3-[4-(2,4,6-trimethoxy-benzyl)-piperazine-1-carbonyl]-5,6,7,8-tetrahydro-imidazo[1,2-a]pyridin-2-yl}-benzamide] | 70% |
| CCCCN(C(=O)c1cccc(Cl)c1)c1nc2n(c1C(=O)NC(c1ccccc1)c1ccccc1)CCCC2 [Example 147, 2-[butyl-(3-chloro-benzoyl)-amino]-5,6,7,8-tetrahydro-imidazo[1,2-a]pyridine-3-carboxylic acid benzhydryl-amide] | 56% |
| CN(C(=O)c1cccc2ccccc12)c1nc2n(c1C(=O)N1CCN(c3ccccc3Cl)CC1)CCCC2 [Example 148, naphthalene-1-carboxylic acid {3-[4-(2-chloro-phenyl)-piperazine-1-carbonyl]-5,6,7,8-tetrahydro-imidazo[1,2-a]pyridin-2-yl}-methyl-amide] | 35% |
| CCCCN(C(=O)c1ccc(F)c(F)c1)c1nc2n(c1C(=O)N1CCN(Cc3ccc(Cl)cc3)CC1)CCCC2 [Example 150, N-butyl-N-{3-[4-(4-chlorobenzyl)-piperazine-1-carbonyl]-5,6,7,8-tetrahydro-imidazo[1,2-a]pyridin-2-yl}-3,4-difluoro-benzamide] | 69% |
| CCCCN(C(=O)c1cccc(Cl)c1)c1nc2n(c1C(=O)Nc1ccc(C(C)(C)C)cc1)CCCC2 [Example 152, 2-[butyl-(3-chloro-benzoyl)-amino]-5,6,7,8-tetrahydro-imidazo[1,2-a]pyridine-3-carboxylic acid (4-tert-butyl-phenyl)-amide] | 92% |
| CN(C(=O)c1cccc2ccccc12)c1nc2n(c1C(=O)NC1CCCCC1)CCCC2 [Example 154, 2-[methyl-(naphthalene-1-carbonyl)-amino]-5,6,7,8-tetrahydro-imidazo[1,2-a]pyridine-3-carboxylic acid cyclohexylamide] | 92% |
| CN(C(=O)Cc1ccccc1)c1nc2n(c1C(=O)NCCc1cccc(C(F)(F)F)c1)CCCC2 [Example 156, 2-(methyl-phenylacetyl-amino)-5,6,7,8-tetrahydro-imidazo[1,2-a]pyridine-3-carboxylic acid [2-(3-trifluoromethyl-phenyl)-ethyl]-amide] | 40% |
| CN(C(=O)c1ccccc1)c1nc2n(c1C(=O)NCc1ccc(Cl)cc1)CCCC2 [Example 157, 2-(benzoyl-methyl-amino)-5,6,7,8-tetrahydro-imidazo[1,2-a]pyridine-3-carboxylic acid 4-chloro-benzylamide] | 43% |
| CCCCN(C(=O)c1cccc(Cl)c1)c1nc2n(c1C(=O)NCc1cccc(F)c1)CCCC2 [Example 158, 2-[butyl-(3-chloro-benzoyl)-amino]-5,6,7,8-tetrahydro-imidazo[1,2-a]pyridine-3-carboxylic acid 3-fluoro-benzylamide] | 33% |
| Cc1ccc(NC(=O)c2c(N(C)C(=O)Cc3ccccc3)nc3n2CCCC3)cc1 [Example 159, 2-(methyl-phenylacetyl-amino)-5,6,7,8-tetrahydro-imidazo[1,2-a]pyridine-3-carboxylic acid p-tolylamide] | 37% |
| CCCCN(C(=O)c1ccc(F)c(F)c1)c1nc2n(c1C(=O)NC1CCCCC1OCc1ccccc1)CCCC2 (centres unmarked) [Example 161, 2-[butyl-(3,4-difluoro-benzoyl)-amino]-5,6,7,8-tetrahydro-imidazo[1,2-a]pyridine-3-carboxylic acid (2-benzyloxy-cyclohexyl)-amide] | 49% |
| CC(CNC(=O)c1c(N(C)C(=O)c2cccc3ccccc23)nc2n1CCCC2)c1ccc(Cl)cc1 (centres unmarked) [Example 163, 2-[methyl-(naphthalene-1-carbonyl)-amino]-5,6,7,8-tetrahydro-imidazo[1,2-a]pyridine-3-carboxylic acid [2-(4-chlor-phenyl)-propyl]-amide] | 40% |
| CC(NC(=O)c1c(N(C)C(=O)c2cccc(Cl)c2)nc2n1CCCC2)C12CC3CC(CC(C3)C1)C2 (centres unmarked) [Example 165, 2-[(3-chloro-benzoyl)-methyl-amino]-5,6,7,8-tetrahydro-imidazo[1,2-a]pyridine-3-carboxylic acid (1-adamantan-1-yl-ethyl)-amide] | 39% |
| CN(C(=O)c1ccccc1)c1nc2n(c1C(=O)NC(c1ccccc1)c1ccc(Cl)cc1)CCCC2 (centres unmarked) [Example 166, 2-(benzoyl-methyl-amino)-5,6,7,8-tetrahydro-imidazo[1,2-a]pyridine-3-carboxylic acid [(4-chloro-phenyl)-phenyl-methyl]-amide] | 72% |
| CN(C(=O)c1ccccc1)c1nc2n(c1C(=O)N1CCN(c3ccc(C(F)(F)F)cc3)CC1)CCCC2 [Example 167, N-methyl-N-{3-[4-(4-trifluoromethyl-phenyl)-piperazine-1-carbonyl]-5,6,7,8-tetrahydro-imidazo[1,2-a]pyridin-2-yl}-benzamide] | 44% |
| CN(C(=O)Cc1ccccc1)c1nc2n(c1C(=O)N(C)C1CCN(Cc3ccc(-c4ccccc4)cc3)C1)CCCC2 (centres unmarked) [Example 168, 2-(methyl-phenylacetyl-amino)-5,6,7,8-tetrahydro-imidazo[1,2-a]pyridine-3-carboxylic acid (1-biphenyl-4-ylmethyl-pyrrolidin-3-yl)-methyl-amide] | 92% |
| CN(C(=O)c1cccc2ccccc12)c1nc2n(c1C(=O)Nc1ccc(C(C)(C)C)cc1)CCCC2 [Example 170, 2-[methyl-(naphthalene-1-carbonyl)-amino]-5,6,7,8-tetrahydro-imidazo[1,2-a]pyridine-3-carboxylic acid (4-tert-butyl-phenyl)-amide] | 80% |
| CCCCN(C(=O)c1ccc(F)c(F)c1)c1nc2n(c1C(=O)NCCC(C)(C)C)CCCC2 [Example 171, 2-[butyl-(3,4-difluoro-benzoyl)-amino]-5,6,7,8-tetrahydro-imidazo[1,2-a]pyridine-3-carboxylic acid (3,3-dimethyl-butyl)-amide] | 47% |
| CCCCN(C(=O)c1cccc(Cl)c1)c1nc2n(c1C(=O)NC1CCN(Cc3cc(OC)c(OC)cc3Br)C1)CCCC2 (centres unmarked) [Example 172, 2-[butyl-(3-chloro-benzoyl)-amino]-5,6,7,8-tetrahydro-imidazo[1,2-a]pyridine-3-carboxylic acid [1-(2-bromo-4,5-dimethoxy-benzyl)-pyrrolidin-3-yl]-amide] | 96% |
| CN(C(=O)c1cccc2ccccc12)c1nc2n(c1C(=O)N1CCN(CC=Cc3ccccc3)CC1)CCCC2 [Example 173, naphthalene-1-carboxylic acid methyl-{3-[4-(3-phenyl-allyl)-piperazine-1-carbonyl]-5,6,7,8-tetrahydro-imidazo[1,2-a]pyridin-2-yl}-amide] | 74% |
| CN(C(=O)c1cccc2ccccc12)c1nc2n(c1C(=O)N1CCN(CCc3ccccc3)CC1)CCCC2 [Example 174, naphthalene-1-carboxylic acid methyl-[3-(4-phenethyl-piperazine-1-carbonyl)-5,6,7,8-tetrahydro-imidazo[1,2-a]pyridin-2-yl]-amide] | 47% |
| CCCCN(C(=O)c1cccc(Cl)c1)c1nc2n(c1C(=O)N1CCC(O)(c3cccc(C(F)(F)F)c3)CC1)CCCC2 [Example 175, N-butyl-3-chloro-N-{3-[4-hydroxy-4-(3-trifluoromethyl-phenyl)-piperidine-1-carbonyl]-5,6,7,8-tetrahydro-imidazo[1,2-a]pyridin-2-yl}-benzamide] | 65% |
| CN(C(=O)Cc1ccccc1)c1nc2n(c1C(=O)N1CCN(CCCc3ccccc3)CC1)CCCC2 [Example 176, N-methyl-2-phenyl-N-{3-[4-(3-phenyl-propyl)-piperazine-1-carbonyl]-5,6,7,8-tetrahydro-imidazo[1,2-a]pyridin-2-yl}-acetamide] | 71% |
| CCCCN(C(=O)c1ccc(F)c(F)c1)c1nc2n(c1C(=O)N1CCN(c3ccccc3Cl)CC1)CCCC2 [Example 178, N-butyl-N-{3-[4-(2-chloro-phenyl)-piperazine-1-carbonyl]-5,6,7,8-tetrahydro-imidazo[1,2-a]pyridin-2-yl}-3,4-difluoro-benzamide] | 79% |
| CCCCN(C(=O)c1ccc(F)c(F)c1)c1nc2n(c1C(=O)NCCC(c1ccccc1)c1ccccc1)CCCC2 [Example 180, 2-[butyl-(3,4-difluoro-benzoyl)-amino]-5,6,7,8-tetrahydro-imidazo[1,2-a]pyridine-3-carboxylic acid (3,3-diphenyl-propyl)-amide] | 62% |
| CCCCN(C(=O)c1cccc(Cl)c1)c1nc2n(c1C(=O)Nc1ccc3c(c1)OCCO3)CCCC2 [Example 181, 2-[butyl-(3-chloro-benzoyl)-amino]-5,6,7,8-tetrahydro-imidazo[1,2-a]pyridine-3-carboxylic acid (2,3-dihydro-benzo[1,4]dioxin-6-yl)-amide] | 82% |
| CN(C(=O)c1cccc2ccccc12)c1nc2n(c1C(=O)Nc1ccc(Oc3ccccc3)cc1)CCCC2 [Example 185, 2-[methyl-(naphthalene-1-carbonyl)-amino]-5,6,7,8-tetrahydro-imidazo[1,2-a]pyridine-3-carboxylic acid (4-phenoxy-phenyl)-amide] | 74% |
| CCCCN(C(=O)c1ccc(F)c(F)c1)c1nc2n(c1C(=O)N1CCN(c3ccc(C(F)(F)F)cn3)CC1)CCCC2 [Example 187, N-butyl-3,4-difluoro-N-{3-[4-(5-trifluoromethyl-pyridin-2-yl)-piperazine-1-carbonyl]-5,6,7,8-tetrahydro-imidazo[1,2-a]pyridin-2-yl}-benzamide] | 41% |
